Active and inactive are the calls of the source.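 Rule for the calls: active = response above 60% of the acetylcholine maximum at the M5 muscarinic receptor, read as positive allosteric modulation; inactive = the rest.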
Target: Muscarinic acetylcholine receptor M3 (Homo sapiens) (UniProt P20309)
Experiment: ACh potentiation at muscarinic M3 subtype – cell-based, CHO-K1 hM3, calcium flux, ACh EC20, selectivity assay for M5 PAM project, dose response (AID 743115)
Conditions: CHO-K1 hM3, calcium flux Fluo-4, ACh EC20 potentiation; for % ACh max response: at 30 µM (top of the series)

Chain of Muscarinic acetylcholine receptor M3 (Homo sapiens) (P20309 whole entry, looked up): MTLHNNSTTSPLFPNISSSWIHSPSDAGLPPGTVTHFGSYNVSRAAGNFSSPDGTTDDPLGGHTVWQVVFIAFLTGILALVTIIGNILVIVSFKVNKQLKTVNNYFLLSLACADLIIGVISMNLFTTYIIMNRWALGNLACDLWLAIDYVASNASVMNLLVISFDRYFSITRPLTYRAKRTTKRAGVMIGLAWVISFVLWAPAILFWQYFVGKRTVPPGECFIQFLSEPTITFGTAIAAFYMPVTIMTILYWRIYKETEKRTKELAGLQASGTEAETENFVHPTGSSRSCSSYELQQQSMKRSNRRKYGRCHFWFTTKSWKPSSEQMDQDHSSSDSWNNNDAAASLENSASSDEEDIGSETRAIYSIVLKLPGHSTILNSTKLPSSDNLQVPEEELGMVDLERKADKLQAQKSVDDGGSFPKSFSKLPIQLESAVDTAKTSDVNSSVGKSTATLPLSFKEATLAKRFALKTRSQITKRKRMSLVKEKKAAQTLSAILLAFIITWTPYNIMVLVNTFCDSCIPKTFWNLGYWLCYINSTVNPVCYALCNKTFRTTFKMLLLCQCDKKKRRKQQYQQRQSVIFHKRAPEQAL

Compound | EC50 | % ACh max response
CCN(Cc1ccccc1Cl)C(=O)C1CCN(S(=O)(=O)c2ccc3[nH]ncc3c2)CC1 | 520 nM | –
CCN(C(=O)C1CCN(S(=O)(=O)c2ccc3[nH]ncc3c2)CC1)[C@H](C)c1ccccc1 | 2170 nM | –
CCN(Cc1ccccc1)C(=O)C1CCN(S(=O)(=O)c2ccc3c(c2)OCCO3)CC1 | – | inactive
CCN(Cc1ccccc1Cl)C(=O)C1CCN(S(=O)(=O)c2ccc3cn[nH]c3c2)CC1 | 2890 nM | –
CCN(Cc1ccccc1)C(=O)C1CCN(S(=O)(=O)c2ccc(OC)cc2)CC1 | – | inactive
CCN(Cc1ccccc1C(F)(F)F)C(=O)C1(F)CCN(S(=O)(=O)c2ccc3[nH]ncc3c2)CC1 | 1770 nM | –
CCN(Cc1ccccc1C(F)(F)F)C(=O)C1CCN(S(=O)(=O)c2ccc3[nH]ncc3c2)CC1 | 2080 nM | –
CCN(C(=O)C1CCN(S(=O)(=O)c2ccc(OC)cc2)CC1)[C@H](C)c1ccccc1 | – | inactive
CCN(Cc1ccccc1C(F)(F)F)C(=O)C1CCN(S(=O)(=O)c2ccc3cn[nH]c3c2)CC1 | 4670 nM | –
